The record followed here is patent publication US12286632B2, “Rationally-designed synthetic peptide shuttle agents for delivering polypeptide cargos from an extracellular space to the cytosol and/or nucleus of a target eukaryotic cell, uses thereof, methods and kits relating to same” (Feldan Bio Inc., priority 2016, dated 2025).

Ends that are not written are not given here.

Data set [1] has as its system THP-1 cells. In words: Cleaved PARP ELISA assay after transduction of anti-Active Caspase 3 or anti-TNF antibody (± actinomycin D). The following applies: FSD23 7.5 μM, 5 min. Format: cell-based, human. The protocol:
(§1) A monoclonal (mAb) and a polyclonal (pAb) anti-Active Caspase 3 antibodies […] were independently co-incubated with THP-1 and Jurkat cells for 5 min in the presence of FSD23 at 7.5 μM. The anti-apoptotic effect of each antibody was assessed via the level of Caspase 3-activated apoptosis with an ELISA cleaved PARP assay and quantified by spectrometry as described below.
(§2) The day of the experiment, cells in exponential growth phase were harvested, centrifugated (400g for 3 min) and resuspended in serum-free RPMI in a 96-well plate (500,000 cells in 150 μL per well). Cells were centrifugated and incubated for 5 min with a mix composed by the peptide to be tested (7.5 μM) and 2 μg of the antibody to be transduced. Cells were centrifuged and resuspended in RPMI with serum in a 24-well plate for 1 h at 37° C. Actinomycin D (2 μg/mL), a cytotoxic inducer of apoptosis, was incubated with the cells for 4 h. Cells were washed with cold PBS and tested using the PARP (Cleaved) [214/215]Human ELISA Kit (ThermoFisher) according to the manufacturer's instructions followed by spectroscopy analysis. […]

The nature of data set [2]: in vitro. Particulars: human, HeLa cells, Cell viability (%) (±St Dev.; n = 3).
Data set [3] deals with HeLa cells. In words: Plasmid DNA (pEGFP-C1) transfection by peptides (% cells with GFP signal, cell viability). The following applies: DNA transfection in HeLa cells using peptides; pEGFP-C1 plasmid.
Data set [4] in a line: in vitro. Particulars: human, HeLa cells.
Data set [5] concerns HeLa cells. In words: GFP-NLS protein transduction assay (flow cytometry: Pos cells %, viability %, relative fluorescence intensity; microscopy). The following applies: Table B2; HeLa cells, GFP-NLS cargo. (In flow cytometry, cells or beads pass a laser one at a time.)
Data set [6] concerns B2M genomic DNA sequence. In words: T7E1 DNA cleavage assay / % INDELs after CRISPR/Cas9-NLS or CRISPR/Cpf1-NLS delivery (HeLa, THP-1, NK, T cells). Format: cell-based, Human. Particulars: CRISPR/Cpf1 1.33 μM, crRNA 2 μM; THP-1 and NK cells; different concentrations and exposure times.
In data set [7] the test system is NK-92 cells. In words: NKG2A gene inactivation by delivered CRISPR/Cpf1-NLS: PE anti-NKG2A immunolabelling, FACS. Format: cell-based, Human. The following applies: FSD23 6 μM; Cpf1-NLS 1.5 μM; 90 sec; 48 h. How it is done: Genome editing was performed in NK-92 cells to evaluate whether inactivation of the endogenous NKG2A gene could increase the cytotoxicity of the NK-92 cells. Briefly, one million NK-92 cells were incubated with Cpf1-NLS (1.5 μM) gRNA complex targeting the NKG2A gene and with FSD23 (6 μM) for 90 sec. After transduction, cells were incubated in complete medium with IL-2 (20 ng/mL) for 48 h at 37° C. NK-92 cells were then immunolabelled with a phycoerythrin (PE)-labelled anti-NKG2A antibody (Miltenyi Biotec #CD159a) following the manufacturer recommendations. NK-92 cells were then analyzed with FACS and scored as a function of their anti-NKG2A detection (PE fluorescence) level and the results are shown in FIG. 57A. As controls, unlabelled wild-type NK-92 cells (“unlabelled WT cells”) had no antibody signal, and labelled wild-type NK-92 cells (“labelled WT cells”) had full immunolabelling signal.

Data set [8] has as its system Jurkat cells. In words: Cleaved PARP ELISA assay after transduction of anti-Active Caspase 3 or anti-TNF antibody (± actinomycin D). Format: cell-based, Human. The following applies: FSD23 7.5 μM, 5 min. How it is done: as §1, §2

One may read the viability as a read-out of living cells in per cent, often relative to untreated cells. Higher therefore signals better survival. As to “HHHHHHLLKLWSRLLKEWTQGRRLEAKRAEAHHHHHH [FSD23]”, the “transduction of functional anti-Active Caspase 3 antibodies (cleaved PARP, in words)” value in data set [1] and in data set [8] was “successfully transduced functional anti-Active Caspase 3 antibodies” in each case. For the same sequence, the values for the viability in data set [2] and in data set [4] were 65.3 ± 5.44% and 98.2 ± 1.03%, respectively. Moreover, the “Mean % cells with GFP signal (±St. Dev.; n = 3)” value in data set [3] worked out at 0.04 ± 0.00%; in data set [5] it was 50.34 ± 4.29%. Moreover, the “delivery of CRISPR/Cpf1 complex, cleavage of genomic B2M (in words)” value in data set [6] was “successful delivery of the CRISPR genome-editing complexes to the nucleus”. In addition, the “NKG2A receptor expression on the cell surface after genome editing” value in data set [7] is given as “two cell populations (peaks) were observed”.
